Assay results from PMC6426458 (Science Advances, 2019).

How the values were obtained:
[1] = molecular target: T1, RelMtb (truncated, residues 53 to 446) (Mycobacterium tuberculosis, UniProt P9WHG9); experiment: RelMtb enzymatic fluorescence polarization; assay type: biochemical
T1 sequence (P9WHG9 1-394): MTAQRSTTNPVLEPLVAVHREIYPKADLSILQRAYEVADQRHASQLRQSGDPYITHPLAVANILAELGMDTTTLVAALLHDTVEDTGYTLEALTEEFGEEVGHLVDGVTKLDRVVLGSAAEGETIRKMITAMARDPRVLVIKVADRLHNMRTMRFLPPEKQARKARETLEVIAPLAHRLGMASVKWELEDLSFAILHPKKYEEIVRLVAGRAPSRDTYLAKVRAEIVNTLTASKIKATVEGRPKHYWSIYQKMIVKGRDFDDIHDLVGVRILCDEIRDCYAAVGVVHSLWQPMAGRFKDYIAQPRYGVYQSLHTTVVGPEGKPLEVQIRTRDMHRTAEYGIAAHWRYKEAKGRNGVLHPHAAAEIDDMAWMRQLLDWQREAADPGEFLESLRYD

[2] = test system: rel Comp (relMtb-complemented strain); assay type: cell-based, Mycobacterium tuberculosis
[3] = test system: nutrient-starved empty vector control (CDC1551); assay type: cell-based, Mycobacterium tuberculosis; conditions: INH 15.36 μg/ml, 7 days of exposure
relMtb-deficient Mtb = conditions: nutrient-rich broth; cited from earlier work
WT Mtb H37Rv = assay type: cell-based, Mycobacterium tuberculosis
rel Comp = test system: rel Comp; parameters: species or system Mycobacterium tuberculosis; conditions: in vivo
WT H37Rv = test system: WT H37Rv; parameters: species or system Mycobacterium tuberculosis; conditions: in vivo
Δrel = test system: Δrel; parameters: species or system Mycobacterium tuberculosis; conditions: in vivo
[4] = test system: Mtb following exposure to NS; conditions: cited from earlier work
[5] = test system: Δrel (H37Rv deficient in Rv2583c/relMtb); assay type: cell-based, Mycobacterium tuberculosis; conditions: nutrient-rich broth

Q: For `Nc1nc2c(ncn2[C@@H]2O[C@H](COP(=O)(O)OP(=O)(O)OP(=O)(O)O)C[C@H]2O)c(=O)[nH]1` [3′-dGTP], which IC50 [1] is on record?
A: 4 mM

Q: With `Nc1ncnc2c1ncn2[C@@H]1O[C@H](COP(=O)(O)CP(=O)(O)OP(=O)(O)O)[C@@H](O)[C@H]1O` [AMPCPP, α,β-methylene analogue of ATP] as the compound, how does the IC50 [1] read?
A: 6.2 mM

Q: With `Nc1nc2c(ncn2[C@@H]2O[C@H](COP(=O)(O)OP(=O)(O)OP(=O)(O)OP(=O)(O)OC[C@H]3O[C@@H](n4cnc5c(N)ncnc54)[C@H](O)[C@@H]3O)[C@@H](O)[C@H]2O)c(=O)[nH]1` [AP4G] as the compound, how does the IC50 [1] read?
A: 1.8 mM

Q: What does the source list for `NNC(=O)c1ccncc1` [INH, isoniazid]?
A: fold increase of MBC of INH ([2]; 7 days of NS versus nutrient-rich broth): 512 fold; fold decrease of MBC of INH ([2]; 7 days of NS, in the presence of 4 μM X9): 16 fold; MBC of INH (concentration required to kill 99%) ([2]; nutrient-rich broth): 0.06 µg/mL; mean reduction of bacterial density (CFU/ml) [3]: 1.43 log10 CFU; MIC against relMtb-deficient Mtb compared with the WT strain (relMtb-deficient Mtb): the same as that against the WT strain; MBC of INH (concentration required to kill 99%) (WT Mtb H37Rv): 0.06 µg/mL; fold decrease of MBC of INH (WT Mtb H37Rv): 16 fold; fold increase of MBC of INH (WT Mtb H37Rv): 512 fold; reduction of lung bacterial load (rel Comp): 0.48 log10; reduction of lung bacillary burden relative to the start of treatment (WT H37Rv): 0.11 log10; bacilli killed in the lungs during 2 weeks of treatment (Δrel): 2.03 log10; fold increase in the MBC of INH [4]: > 100 fold; MBC of INH (concentration required to kill 99%) [5]: 0.06 µg/mL

Q: Which “MIC against relMtb-deficient Mtb compared with the WT strain” value (relMtb-deficient Mtb) does the source give for `CO[C@H]1/C=C/O[C@@]2(C)Oc3c(C)c(O)c4c(O)c(c(/C=N/N5CCN(C)CC5)c(O)c4c3C2=O)NC(=O)/C(C)=C\C=C\[C@H](C)[C@H](O)[C@@H](C)[C@@H](O)[C@@H](C)[C@H](OC(C)=O)[C@@H]1C` [rifampin] here?
A: the same as that against the WT strain
